Measurements from ChEMBL document CHEMBL4765389, “Antimicrobial and anti-inflammatory activities of short dodecapeptides derived from duck cathelicidin: Plausible mechanism of bactericidal action and endotoxin neutralization” (Eur J Med Chem, 2020).
Converted amounts (≈) assume the structure as drawn. The source made the active and inactive calls. No cut-off for these calls is given here. Bridge positions count the residues as written; N and C are the ends. Square brackets hold non-standard residues; d marks the D form. Peptide text beside a SMILES is read from it. * marks the point of attachment. X1 = CC[C@H](C)CCCCC(=O)*; Dab = NCC[C@H](N)C(=O)O

Experiments:
Escherichia coli [1] = assay: Bacteriostatic activity against Escherichia coli KCTC 1682 assessed as reduction in colony forming unit at 0.5 times MIC measured for 12 hrs by time kill assay; type: functional, organism-based
Escherichia coli [2] = assay: Bacteriostatic activity against Escherichia coli KCTC 1682 assessed as reduction in colony forming unit at 0.5 times MIC measured for 24 hrs by time kill assay; type: functional
RAW264.7 [3] = assay: Antiinflammatory activity in mouse RAW264.7 cells assessed as suppression of LPS binding by measuring LPS-FITC aggregation at 10 uM pretreated with LPS for 1 hr followed by compound addition and measured after 30 mins by flowcytometry analysis (reference value: 67.93 %); type: functional; details: 0.5 h
RAW264.7 [4] = assay: Antiinflammatory activity in mouse RAW264.7 cells assessed as neutralization of LPS binding by measuring LPS-FITC aggregation at 10 uM pretreated with LPS for 1 hr followed by compound addition and measured after 1 hr by flowcytometry analysis (reference value: 48.12 %); type: functional
Lipopolysaccharide (LPS) = assay: Inhibition of Escherichia coli O111:B4 LPS aggregation assessed as increase in FITC-LPS dissociation at 100 uM by spectrofluorometry
Bacteria [5] = assay: Antibacterial activity against Gram positive bacteria assessed as reduction in bacterial growth incubated for 24 hrs by CLSI based broth dilution method; type: functional; details: read-out: MIC100
RAW264.7 [6] = assay: Cytotoxicity against mouse RAW264.7 cells assessed as reduction in cell viability at 1.25 to 80 uM incubated for 24 hrs by MTT assay; type: cell-based; details: raw264.7, 24 h, dose 1.25-80 µM
Cell membrane [7] = assay: Induction of cell membrane permeability in Escherichia coli KCTC 1682 assessed as […] at 2 times MIC by ONPG dye based spectrophotometry; type: subcellular
Saccharomyces cerevisiae = assay: Antifungal activity against yeast assessed as reduction in fungal growth incubated for 24 hrs by CLSI based broth dilution method; type: functional; details: read-out: MIC100
NIH3T3 [8] = assay: Cytotoxicity against mouse NIH/3T3 cells assessed as reduction in cell viability at 1.25 to 80 uM incubated for 24 hrs by MTT assay; type: cell-based; details: nih3t3, 24 h, dose 1.25-80 µM
[9] = Cytotoxicity against mouse RAW264.7 cells assessed as reduction in cell viability at 20 uM incubated for 24 hrs by MTT assay; type: cell-based; details: read-out: INH
[10] = Antibacterial activity against multidrug-resistant Pseudomonas aeruginosa CCARM 2095 assessed as reduction in bacterial growth incubated for 24 hrs by CLSI based broth dilution method; type: functional; details: read-out: MIC100
Erythrocyte = assay: Hemolytic activity in sheep RBC assessed as reduction in hemoglobin incubated for 1 hr; type: ADME, cell-based, Ovis aries
[11] = Antibacterial activity against multidrug-resistant Pseudomonas aeruginosa CCARM 2109 assessed as reduction in bacterial growth incubated for 24 hrs by CLSI based broth dilution method; type: functional; details: read-out: MIC100
Cell membrane [12] = assay: Induction of cell membrane permeability in Staphylococcus aureus KCTC 1621 assessed as cytoplasmic membrane depolarization at 2 times MIC by DiSC3-5 dye based spectrofluorometry; type: subcellular
[13] = Therapeutic index, ratio of HC10 for sheep RBC to geometric mean MIC for gram positive bacteria; type: toxicity; details: sheep red blood cells, read-out: TI
Bacteria [14] = assay: Antibacterial activity against Gram negative bacteria assessed as reduction in bacterial growth incubated for 24 hrs by CLSI based broth dilution method; type: functional; details: read-out: MIC100
[15] = Therapeutic index, ratio of HC10 for sheep RBC to geometric mean MIC for gram negative bacteria; type: toxicity; details: sheep red blood cells, read-out: TI
NIH3T3 [16] = assay: Cytotoxicity against mouse NIH/3T3 cells assessed as reduction in cell viability at 20 uM incubated for 24 hrs by MTT assay; type: cell-based; details: nih3t3, 24 h, 20 µM
Candida albicans [17] = assay: Antifungal activity against Candida albicans KCTC 7121 assessed as reduction in fungal growth incubated for 24 hrs by CLSI based broth dilution method; type: functional; details: read-out: MIC100
Enterococcus faecium = assay: Antibacterial activity against vancomycin-resistant Enterococcus faecium ATCC 51559 assessed as reduction in bacterial growth incubated for 24 hrs by CLSI based broth dilution method; type: functional; details: read-out: MIC100
Candida albicans [18] = assay: Antifungal activity against Candida albicans KCTC 7965 assessed as reduction in fungal growth incubated for 24 hrs by CLSI based broth dilution method; type: functional; details: read-out: MIC100
Cell membrane [19] = assay: Induction of cell membrane permeability in Staphylococcus aureus KCTC 1621 assessed as cytoplasmic membrane depolarization at 2 times MIC by SYTOX dye based fluorescence assay; type: subcellular
Cell membrane [20] = assay: Induction of cell membrane permeability in Escherichia coli KCTC 1682 assessed as cytoplasmic membrane […] fluorescent signals at 2 times MIC measured after 1 hr by propidium iodide dye based flow cytometry analysis (reference value: 9.8 %); type: subcellular
[21] = Therapeutic index, ratio of HC10 for sheep RBC to geometric mean MIC for yeast; type: toxicity; details: sheep red blood cells, read-out: TI

## O=C(N[C@H](CO)[C@H](O)c1ccc([N+](=O)[O-])cc1)C(Cl)Cl
Escherichia coli [1]
  Activity: Active
Escherichia coli [2]
  Activity: inactive

## CC[C@H](C)CCCCC(=O)N[C@@H](CCN)C(=O)N[C@H](C(=O)N[C@@H](CCN)C(=O)N[C@H]1CCNC(=O)[C@H]([C@@H](C)O)NC(=O)[C@H](CCN)NC(=O)[C@H](CCN)NC(=O)[C@H](CC(C)C)NC(=O)[C@@H](Cc2ccccc2)NC(=O)[C@H](CCN)NC1=O)[C@@H](C)O (X1-[Dab]T[Dab][Dab][Dab][dF]L[Dab][Dab]T; lactam 4-C)
RAW264.7 [3]
  Activity: 23.97%
RAW264.7 [4]
  Activity: 43.62%
Lipopolysaccharide (LPS)
  inhibition: inactive

## CC[C@H](C)[C@H](NC(=O)CN)C(=O)NCC(=O)N[C@@H](C)C(=O)N[C@H](C(=O)N[C@@H](CC(C)C)C(=O)N[C@@H](CCCCN)C(=O)N[C@H](C(=O)N[C@@H](CC(C)C)C(=O)N[C@H](C(=O)N[C@H](C(=O)NCC(=O)N[C@@H](CC(C)C)C(=O)N1CCC[C@H]1C(=O)N[C@@H](C)C(=O)N[C@@H](CC(C)C)C(=O)N[C@H](C(=O)N[C@@H](CO)C(=O)N[C@@H](Cc1c[nH]c2ccccc12)C(=O)N[C@H](C(=O)N[C@@H](CCCCN)C(=O)N[C@@H](CCCNC(=N)N)C(=O)N[C@@H](CCCCN)C(=O)N[C@@H](CCCNC(=N)N)C(=O)N[C@@H](CCC(N)=O)C(=O)N[C@@H](CCC(N)=O)C(N)=O)[C@@H](C)CC)[C@@H](C)CC)[C@@H](C)O)[C@@H](C)O)C(C)C)C(C)C [MELITTIN]
Bacteria [5]
  MIC: 16 µM (≈ 45.5 µg/mL)
RAW264.7 [6]
  Activity: Toxic
Cell membrane [7]
  Activity: Active
Saccharomyces cerevisiae
  MIC: 16 µM (≈ 45.5 µg/mL)
NIH3T3 [8]
  Activity: Toxic
[9]
  cytotoxicity at 24 h, 20 µM: < 10%
[10]
  MIC: 32 µM (≈ 91.1 µg/mL)
Erythrocyte
  HC10: 1 µM
[11]
  MIC: 32 µM (≈ 91.1 µg/mL)
Cell membrane [12]
  Activity: Active
[13]
  selectivity ratio: 0.1
Bacteria [14]
  MIC: 17.2 µM (≈ 49 µg/mL)
[15]
  selectivity ratio: 0.1
NIH3T3 [16]
  Activity: Toxic
Candida albicans [17]
  MIC: 16 µM (≈ 45.5 µg/mL)
Enterococcus faecium
  MIC: 16 µM (≈ 45.5 µg/mL)
Candida albicans [18]
  MIC: 16 µM (≈ 45.5 µg/mL)
Cell membrane [19]
  Activity: Active
Cell membrane [20]
  Activity: 71.9%
[21]
  selectivity ratio: 0.1
